Measurements from patent US7964531B2, “3-phenoxy-4-pyridazinol derivatives and herbicidal composition containing the same” (Mitsui Chemicals Agro, Inc., priority 2001, dated 2011).

Tests used:
Format in all cases: in vivo
Conditions in all cases: wettable powder applied 3 days after transplanting, judged after 25 days
[1] = tested on: annual broad-leaved weeds (Lindernia spp., Rotala indica); experiment: Test Example 1: herbicidal effects, paddy-field pot test
In short: (§1)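 Paddy soil pots sown with dormancy-broken weed seeds mixed into the top 1 cm, plus germinated Cyperus serotinus tubers and transplanted 2.2-leaf rice seedlings, grown flooded in a greenhouse. Water-diluted wettable powder applied 3 days after transplanting; growth inhibition scored 25 days later on a 0–5 scale (0 = 0–10%, 5 = 91–100%).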

[2] = tested on: Cyperus serotinus; experiment: as above
In short: as §1

[3] = tested on: Scirpus joncoides; experiment: as above
In short: as §1

[4] = tested on: barnyardgrass (Echinochloa oryzicola Vasing.); experiment: as above
In short: as §1

[5] = tested on: transplanted paddy-field rice; experiment: Test Example 1: crop injury against transplanted paddy-field rice
In short: as §1

Row | SMILES | Herbicidal effects Broad leaf ([1]; chemical dosage 10 g/a) | Herbicidal effects Broad leaf ([1]; chemical dosage 20 g/a) | Herbicidal effects Cyperus serotinus ([2]; chemical dosage 10 g/a) | Herbicidal effects Cyperus serotinus ([2]; chemical dosage 20 g/a) | Herbicidal effects Scirpus joncoides ([3]; chemical dosage 10 g/a) | Herbicidal effects Scirpus joncoides ([3]; chemical dosage 20 g/a) | Herbicidal effects Barnyard grass ([4]; chemical dosage 10 g/a) | Herbicidal effects Barnyard grass ([4]; chemical dosage 20 g/a) | Crop injury against transplanted rice ([5]; chemical dosage 10 g/a) | Crop injury against transplanted rice ([5]; chemical dosage 20 g/a) | Herbicidal effects Broad leaf ([1]; chemical dosage 12.5 g/a) | Herbicidal effects Broad leaf ([1]; chemical dosage 25 g/a) | Herbicidal effects Cyperus serotinus ([2]; chemical dosage 12.5 g/a) | Herbicidal effects Cyperus serotinus ([2]; chemical dosage 25 g/a) | Herbicidal effects Scirpus joncoides ([3]; chemical dosage 12.5 g/a) | Herbicidal effects Scirpus joncoides ([3]; chemical dosage 25 g/a) | Herbicidal effects Barnyard grass ([4]; chemical dosage 12.5 g/a) | Herbicidal effects Barnyard grass ([4]; chemical dosage 25 g/a) | Crop injury against transplanted rice ([5]; chemical dosage 12.5 g/a) | Crop injury against transplanted rice ([5]; chemical dosage 25 g/a)
1 | Cc1cc(C)c(Br)c(Oc2nnc(Cl)cc2O)c1C [Example 319] | 5 (Growth inhibition rate; 91 to 100%) | 5 (Growth inhibition rate; 91 to 100%) | 5 (Growth inhibition rate; 91 to 100%) | 5 (Growth inhibition rate; 91 to 100%) | 5 (Growth inhibition rate; 91 to 100%) | 5 (Growth inhibition rate; 91 to 100%) | 2 (Growth inhibition rate; 31 to 50%) | 3 (Growth inhibition rate; 51 to 70%) | 0 (Growth inhibition rate; 0 to 10%) | 0 (Growth inhibition rate; 0 to 10%) | – | – | – | – | – | – | – | – | – | –
2 | Cc1cc(Oc2nnc(Cl)cc2O)cc(C(C)C)c1 [Example 282] | – | – | – | – | – | – | – | – | – | – | 5 (Growth inhibition rate; 91 to 100%) | 5 (Growth inhibition rate; 91 to 100%) | 4 (Growth inhibition rate; 71 to 90%) | 5 (Growth inhibition rate; 91 to 100%) | 3 (Growth inhibition rate; 51 to 70%) | 4 (Growth inhibition rate; 71 to 90%) | 0 (Growth inhibition rate; 0 to 10%) | 0 (Growth inhibition rate; 0 to 10%) | 0 (Growth inhibition rate; 0 to 10%) | 0 (Growth inhibition rate; 0 to 10%)
3 | Oc1cc(Cl)nnc1Oc1ccccc1C1CCCC1 [Example 88] | – | – | – | – | – | – | – | – | – | – | 4 (Growth inhibition rate; 71 to 90%) | 5 (Growth inhibition rate; 91 to 100%) | 5 (Growth inhibition rate; 91 to 100%) | 5 (Growth inhibition rate; 91 to 100%) | 4 (Growth inhibition rate; 71 to 90%) | 5 (Growth inhibition rate; 91 to 100%) | 0 (Growth inhibition rate; 0 to 10%) | 0 (Growth inhibition rate; 0 to 10%) | 0 (Growth inhibition rate; 0 to 10%) | 0 (Growth inhibition rate; 0 to 10%)
4 | Oc1cc(Cl)nnc1Oc1cccc2c1CCCC2 [Example 179] | 4 (Growth inhibition rate; 71 to 90%) | 4 (Growth inhibition rate; 71 to 90%) | 5 (Growth inhibition rate; 91 to 100%) | 5 (Growth inhibition rate; 91 to 100%) | 3 (Growth inhibition rate; 51 to 70%) | 4 (Growth inhibition rate; 71 to 90%) | 0 (Growth inhibition rate; 0 to 10%) | 1 (Growth inhibition rate; 11 to 30%) | 0 (Growth inhibition rate; 0 to 10%) | 0 (Growth inhibition rate; 0 to 10%) | – | – | – | – | – | – | – | – | – | –
5 | Cc1ccc(C(C)C)c(Oc2nnc(Cl)cc2O)c1 [Example 212] | – | – | – | – | – | – | – | – | – | – | 5 (Growth inhibition rate; 91 to 100%) | 5 (Growth inhibition rate; 91 to 100%) | 5 (Growth inhibition rate; 91 to 100%) | 5 (Growth inhibition rate; 91 to 100%) | 5 (Growth inhibition rate; 91 to 100%) | 5 (Growth inhibition rate; 91 to 100%) | 1 (Growth inhibition rate; 11 to 30%) | 2 (Growth inhibition rate; 31 to 50%) | 0 (Growth inhibition rate; 0 to 10%) | 0 (Growth inhibition rate; 0 to 10%)
6 | Oc1cc(Cl)nnc1Oc1ccccc1Cl [Example 50] | – | – | – | – | – | – | – | – | – | – | 5 (Growth inhibition rate; 91 to 100%) | 5 (Growth inhibition rate; 91 to 100%) | 5 (Growth inhibition rate; 91 to 100%) | 5 (Growth inhibition rate; 91 to 100%) | 3 (Growth inhibition rate; 51 to 70%) | 4 (Growth inhibition rate; 71 to 90%) | 2 (Growth inhibition rate; 31 to 50%) | 3 (Growth inhibition rate; 51 to 70%) | 0 (Growth inhibition rate; 0 to 10%) | 0 (Growth inhibition rate; 0 to 10%)
7 | Cc1cccc(C(C)C)c1Oc1nnc(Cl)cc1O [Example 261] | 5 (Growth inhibition rate; 91 to 100%) | 5 (Growth inhibition rate; 91 to 100%) | 5 (Growth inhibition rate; 91 to 100%) | 5 (Growth inhibition rate; 91 to 100%) | 4 (Growth inhibition rate; 71 to 90%) | 5 (Growth inhibition rate; 91 to 100%) | 2 (Growth inhibition rate; 31 to 50%) | 2 (Growth inhibition rate; 31 to 50%) | 0 (Growth inhibition rate; 0 to 10%) | 0 (Growth inhibition rate; 0 to 10%) | – | – | – | – | – | – | – | – | – | –
8 | COc1cccc(Br)c1Oc1nnc(Cl)cc1O [Example 255] | 5 (Growth inhibition rate; 91 to 100%) | 5 (Growth inhibition rate; 91 to 100%) | 5 (Growth inhibition rate; 91 to 100%) | 5 (Growth inhibition rate; 91 to 100%) | 4 (Growth inhibition rate; 71 to 90%) | 4 (Growth inhibition rate; 71 to 90%) | 5 (Growth inhibition rate; 91 to 100%) | 5 (Growth inhibition rate; 91 to 100%) | 0 (Growth inhibition rate; 0 to 10%) | 2 (Growth inhibition rate; 31 to 50%) | – | – | – | – | – | – | – | – | – | –
